Our source for the IC50 values is patent US8129371B2, “Thienopyrimidine and pyrazolopyrimidine compounds and their use as mTOR kinase and PI3 kinase inhibitors” (Wyeth LLC, priority 2007, dated 2012).

Like-named read-outs stand apart in the source and are kept apart here.

One test concerns prostate line LNCap. Kind of test: In vitro cell culture growth assay (MTS), LNCap. Particulars: Homo sapiens, LNCaP, 72 h, LNCap cells, three days after drug treatment. It counts as cell-based. A digest of the protocol: (§1)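 The readout was MTS dye metabolism at 490 nm, taken after 3-day drug exposure that began the day after seeding. Growth was expressed as percent of vehicle-treated wells in the same plate.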

Another test concerns breast line MDA468. Kind of test: In vitro cell culture growth assay (MTS), MDA468. It counts as cell-based. The conditions noted are these: Homo sapiens, 72 h, MDA468 cells, three days after drug treatment. The essentials:
as §1

The target of test [1] is T1, PI3K (Homo sapiens, UniProt P42336).
T1 construct: PI3 Kinase α IC50; other: PI3 Kinase α; other: PI3 Kinase α isoform, fluorescence polarization
Kind of test: Fluorescence polarization assay for PI3K. It counts as biochemical. Particulars: read-out: PI3 Kinase α IC50. A digest of the protocol:
(§2)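 PI3K was preincubated with compound (final DMSO 1%), and the reaction was started with PIP2/ATP substrate and run 30–60 min. It was stopped with a detector mix giving 10 nM red probe and 70 nM GST-GRP.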
In general terms: Polarisation of emitted light reports the rotation of a fluorescent probe.

Test [2] deals with T2, PI3K (Homo sapiens, UniProt P48736).
T2 construct: PI3 Kinase γ IC50; other: PI3 Kinase γ; other: PI3 Kinase γ isoform, fluorescence polarization
Kind of test: Fluorescence polarization assay for PI3K. It counts as biochemical. Particulars: read-out: PI3 Kinase γ IC50. A digest of the protocol:
as §2

For another test, the target named is T3, Human mTOR (FLAG-TOR) (Homo sapiens, UniProt P42345).
T3 construct: FLAG
Kind of test: Human mTOR kinase assay with purified enzyme, DELFIA format. It counts as biochemical. A digest of the protocol:
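Purified FLAG-mTOR in HEPES pH 7.4 buffer with 10 mM MnCl2 was preincubated with inhibitor and reacted 2 h at room temperature with His6-S6K substrate, then stopped with EDTA/EGTA. Phospho-T389 S6K detected by DELFIA with Eu-labelled antibody (40 ng/mL) after plate capture; inhibition computed from signal.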

[3] abbreviates: PI3 Kinase α isoform, fluorescence polarization.
[4] abbreviates: PI3 Kinase γ isoform, fluorescence polarization.
The mark [5] stands for this setting: purified human mTOR enzyme, DELFIA format.

T2 sequence (P48736 whole entry, canonical isoform): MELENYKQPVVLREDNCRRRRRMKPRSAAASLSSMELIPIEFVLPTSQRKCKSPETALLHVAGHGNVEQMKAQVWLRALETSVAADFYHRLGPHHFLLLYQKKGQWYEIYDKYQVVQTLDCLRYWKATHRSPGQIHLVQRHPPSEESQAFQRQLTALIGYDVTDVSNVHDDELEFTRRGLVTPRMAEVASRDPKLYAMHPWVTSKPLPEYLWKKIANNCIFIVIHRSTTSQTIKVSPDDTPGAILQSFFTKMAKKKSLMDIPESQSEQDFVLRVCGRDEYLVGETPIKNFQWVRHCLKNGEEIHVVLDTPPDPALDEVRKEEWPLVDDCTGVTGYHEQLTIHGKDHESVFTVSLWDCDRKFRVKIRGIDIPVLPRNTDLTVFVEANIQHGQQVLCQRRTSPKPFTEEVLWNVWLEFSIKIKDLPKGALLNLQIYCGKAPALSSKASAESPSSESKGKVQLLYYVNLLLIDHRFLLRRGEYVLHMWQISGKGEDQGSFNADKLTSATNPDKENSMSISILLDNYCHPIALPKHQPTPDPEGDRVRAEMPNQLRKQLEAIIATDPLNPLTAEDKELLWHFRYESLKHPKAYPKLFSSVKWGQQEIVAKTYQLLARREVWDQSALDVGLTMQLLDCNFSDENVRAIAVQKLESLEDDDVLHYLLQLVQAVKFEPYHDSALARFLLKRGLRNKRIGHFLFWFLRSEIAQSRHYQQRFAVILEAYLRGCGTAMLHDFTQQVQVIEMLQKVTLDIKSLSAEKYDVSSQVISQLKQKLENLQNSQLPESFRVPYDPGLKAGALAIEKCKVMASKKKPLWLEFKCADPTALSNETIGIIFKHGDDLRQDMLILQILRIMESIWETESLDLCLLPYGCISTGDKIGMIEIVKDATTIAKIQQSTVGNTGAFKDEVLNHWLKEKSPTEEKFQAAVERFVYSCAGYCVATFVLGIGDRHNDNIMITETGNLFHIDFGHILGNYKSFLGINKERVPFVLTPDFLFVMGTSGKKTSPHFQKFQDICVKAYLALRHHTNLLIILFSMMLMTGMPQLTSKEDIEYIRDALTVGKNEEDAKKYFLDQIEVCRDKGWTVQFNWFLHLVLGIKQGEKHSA
T1 sequence (P42336 whole entry, canonical isoform): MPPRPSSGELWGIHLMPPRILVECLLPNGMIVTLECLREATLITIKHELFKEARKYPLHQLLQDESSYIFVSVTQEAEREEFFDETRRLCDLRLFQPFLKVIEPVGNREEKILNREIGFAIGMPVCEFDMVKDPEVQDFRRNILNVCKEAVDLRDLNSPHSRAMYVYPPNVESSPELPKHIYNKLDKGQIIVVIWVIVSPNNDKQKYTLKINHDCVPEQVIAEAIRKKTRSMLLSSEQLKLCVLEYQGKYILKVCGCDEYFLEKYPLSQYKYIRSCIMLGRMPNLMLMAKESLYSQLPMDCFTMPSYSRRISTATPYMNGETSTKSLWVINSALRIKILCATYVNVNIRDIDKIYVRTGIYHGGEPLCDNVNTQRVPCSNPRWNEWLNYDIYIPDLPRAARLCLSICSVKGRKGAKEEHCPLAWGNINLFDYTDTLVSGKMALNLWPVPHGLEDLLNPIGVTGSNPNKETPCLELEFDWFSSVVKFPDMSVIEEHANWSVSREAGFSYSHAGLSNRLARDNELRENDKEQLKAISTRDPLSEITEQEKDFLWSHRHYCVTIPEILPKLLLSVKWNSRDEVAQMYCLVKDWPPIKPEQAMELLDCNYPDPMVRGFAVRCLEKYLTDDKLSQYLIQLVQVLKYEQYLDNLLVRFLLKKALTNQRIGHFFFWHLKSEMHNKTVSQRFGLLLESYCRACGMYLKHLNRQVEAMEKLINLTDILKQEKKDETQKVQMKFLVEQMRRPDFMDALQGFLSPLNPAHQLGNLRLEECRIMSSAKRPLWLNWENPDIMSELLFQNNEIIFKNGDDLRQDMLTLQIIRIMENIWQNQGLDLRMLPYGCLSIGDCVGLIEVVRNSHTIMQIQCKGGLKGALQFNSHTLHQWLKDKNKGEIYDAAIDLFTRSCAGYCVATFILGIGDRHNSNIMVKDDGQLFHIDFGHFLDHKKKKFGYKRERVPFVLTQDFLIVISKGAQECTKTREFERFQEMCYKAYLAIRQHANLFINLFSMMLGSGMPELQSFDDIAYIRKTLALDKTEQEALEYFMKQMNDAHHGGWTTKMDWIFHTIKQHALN

One may read the IC50 as the concentration at which inhibition is half-maximal. With `CC(C)n1ncc2c(N3CC4CCC(C3)O4)nc(-c3ccc(NC(=O)Nc4cccnc4)cc3)nc21` [Example 148, 1-{4-[1-isopropyl-4-(8-oxa-3-azabicyclo[3.2.1]oct-3-yl)-1H-pyrazolo[3,4-d]pyrimidin-6-yl]phenyl}-3-pyridin-3-ylurea], the IC50 in the test with prostate line LNCap is less than 1 nM; with breast line MDA468, 9 nM; at PI3K [1] (PI3 Kinase α) it was 49 nM; on PI3K [2] (PI3 Kinase γ) it was 781 nM; at Human mTOR (FLAG-TOR), 0.064 nM.

Regarding `CNC(=O)Nc1ccc(-c2nc(N3CC4CCC(C3)O4)c3cnn(C4CCC(NCCO)CC4)c3n2)cc1` (stereo not shown) [Example 334, 1-{4-[1-{4-[(2-hydroxyethyl)amino]cyclohexyl}-4-(8-oxa-3-azabicyclo[3.2.1]oct-3-yl)-1H-pyrazolo[3,4-d]pyrimidin-6-yl]phenyl}-3-methylurea], the 50% inhibitory concentration (IC50) worked out at 2960 nM with prostate line LNCap; 5200 nM in the test with breast line MDA468; 434 nM on PI3K [1] (setting [3]); 3940 nM on PI3K [2] (setting [4]); 4.5 nM on Human mTOR (FLAG-TOR) (setting [5]).

As for `CO[C@H]1CC[C@@H](n2ncc3c(N4CC5CCC(C4)O5)nc(-c4ccc(NC(=O)NC5CC5)cc4)nc32)CC1` (relative stereo) [Example 398, 1-cyclopropyl-3-{4-[1-(cis-4-methoxycyclohexyl)-4-(8-oxa-3-azabicyclo[3.2.1]oct-3-yl)-1H-pyrazolo[3,4-d]pyrimidin-6-yl]phenyl}urea], the IC50 in the test on prostate line LNCap was 1 nM; in the test on breast line MDA468, 20 nM; at PI3K [1] (setting [3]), 1150 nM; on PI3K [2] (setting [4]), 5650 nM; against Human mTOR (FLAG-TOR) (setting [5]), 0.52 nM.

For the molecule `CC(C)OC(=O)N1CCC(n2ncc3c(N4CC5CCC(C4)O5)nc(-c4ccc(NC(=O)Nc5cccnc5)cc4)nc32)CC1` [Example 72, isopropyl 4-[4-(8-oxa-3-azabicyclo[3.2.1]oct-3-yl)-6-{4-[(pyridin-3-ylcarbamoyl)amino]phenyl}-1H-pyrazolo[3,4-d]pyrimidin-1-yl]piperidine-1-carboxylate], the IC50 with prostate line LNCap was found to be 1.7 nM; with breast line MDA468, 36 nM; at PI3K [1] (PI3 Kinase α), 324 nM; on PI3K [2] (PI3 Kinase γ) it was 2690 nM; at Human mTOR (FLAG-TOR) it was 0.2 nM.

For the molecule `COCC(COC)n1ncc2c(N3CC4CCC(C3)O4)nc(-c3ccc(NC(=O)Nc4ccccc4)cc3)nc21` [Example 324, 1-(4-{1-[2-methoxy-1-(methoxymethyl)ethyl]-4-(8-oxa-3-azabicyclo[3.2.1]oct-3-yl)-1H-pyrazolo[3,4-d]pyrimidin-6-yl}phenyl)-3-phenylurea], the IC50 was determined as 8 nM in the test on prostate line LNCap; 58 nM in the test with breast line MDA468; 382 nM at PI3K [1] (setting [3]); 5200 nM on PI3K [2] (setting [4]); 3.4 nM on Human mTOR (FLAG-TOR) (setting [5]).

Regarding `COC(=O)Nc1ccc(-c2nc(N3CC4CCC(C3)O4)c3cnn(CCO)c3n2)cc1` [Example 192, methyl {4-[1-(2-hydroxyethyl)-4-(8-oxa-3-azabicyclo[3.2.1]oct-3-yl)-1H-pyrazolo[3,4-d]pyrimidin-6-yl]phenyl}carbamate], the IC50 with prostate line LNCap was 1020 nM; in the test with breast line MDA468 it was 5000 nM; at PI3K [1] (PI3 Kinase α) it was 2100 nM; at PI3K [2] (PI3 Kinase γ) it was greater than 10000 nM; at Human mTOR (FLAG-TOR), 26 nM.

As to `Cn1ncc2c(N3CC4CCC(C3)O4)nc(-c3ccc(NC(=O)Nc4ccc(CCO)cc4)cc3)nc21` [Example 232, 1-[4-(2-hydroxyethyl)phenyl]-3-{4-[1-methyl-4-(8-oxa-3-azabicyclo[3.2.1]oct-3-yl)-1H-pyrazolo[3,4-d]pyrimidin-6-yl]phenyl}urea], the IC50 with prostate line LNCap is less than 1 nM; in the test on breast line MDA468, 2 nM; at PI3K [1] (PI3 Kinase α) it was 60 nM; at PI3K [2] (PI3 Kinase γ), 524 nM; against Human mTOR (FLAG-TOR) it was 0.105 nM.

Turning to `COC1CCC(n2ncc3c(N4CC5CCC(C4)O5)nc(-c4ccc(NC(=O)Nc5ccc(N6CCN(C)CC6)nc5)cc4)nc32)CC1` (stereo not shown) [Example 309, 1-{4-[1-(4-methoxycyclohexyl)-4-(8-oxa-3-azabicyclo[3.2.1]oct-3-yl)-1H-pyrazolo[3,4-d]pyrimidin-6-yl]phenyl}-3-[6-(4-methylpiperazin-1-yl)pyridin-3-yl]urea], the IC50 is less than 1 nM in the test with prostate line LNCap; 2 nM in the test with breast line MDA468; 336 nM at PI3K [1] (setting [3]); 2670 nM on PI3K [2] (setting [4]); 0.385 nM against Human mTOR (FLAG-TOR) (setting [5]).

Regarding `CCn1nc(C(O)CO)c2c(N3CC4CCC(C3)O4)nc(-c3ccc(NC(=O)NC)cc3)nc21` (stereo not shown) [Example 351, 1-{4-[3-(1,2-dihydroxyethyl)-1-ethyl-4-(8-oxa-3-azabicyclo[3.2.1]oct-3-yl)-1H-pyrazolo[3,4-d]pyrimidin-6-yl]phenyl}-3-methylurea], the half-inhibitory concentration (IC50) with prostate line LNCap is 1050 nM; with breast line MDA468, 1600 nM; on PI3K [1] (setting [3]) it was 2460 nM; on PI3K [2] (setting [4]), greater than 10000 nM; on Human mTOR (FLAG-TOR) (setting [5]) it was 9 nM.

With `CCn1ncc2c(N3CC4CCC(C3)O4)nc(-c3ccc(NC(=O)NCCN)cc3)nc21` [Example 173, 1-(2-aminoethyl)-3-{4-[1-ethyl-4-(8-oxa-3-azabicyclo[3.2.1]oct-3-yl)-1H-pyrazolo[3,4-d]pyrimidin-6-yl]phenyl}urea], the concentration for half-maximal inhibition (IC50) in the test with prostate line LNCap amounted to 270 nM; with breast line MDA468, 650 nM; on PI3K [1] (PI3 Kinase α) it was 270 nM; on PI3K [2] (PI3 Kinase γ) it was 3130 nM; against Human mTOR (FLAG-TOR), 2.25 nM.

Consider `CCn1nc(-c2cccnc2)c2c(N3CC4CCC(C3)O4)nc(-c3ccc(NC(=O)NC)cc3)nc21` [Example 349, 1-{4-[1-ethyl-4-(8-oxa-3-azabicyclo[3.2.1]oct-3-yl)-3-pyridin-3-yl-1H-pyrazolo[3,4-d]pyrimidin-6-yl]phenyl}-3-methylurea], for which the IC50 in the test on prostate line LNCap is 210 nM; in the test with breast line MDA468, 800 nM; at PI3K [1] (setting [3]), 596 nM; at PI3K [2] (setting [4]), 4960 nM; on Human mTOR (FLAG-TOR) (setting [5]) it was 8.9 nM.

Regarding `O=C(Nc1ccncc1)Nc1ccc(-c2nc(N3CC4CCC(C3)O4)c3cnn(CCF)c3n2)cc1` [Example 249, 1-{4-[1-(2-fluoroethyl)-4-(8-oxa-3-azabicyclo[3.2.1]oct-3-yl)-1H-pyrazolo[3,4-d]pyrimidin-6-yl]phenyl}-3-pyridin-4-ylurea], the IC50 was less than 1 nM with prostate line LNCap; 8 nM in the test on breast line MDA468; 102 nM on PI3K [1] (PI3 Kinase α); 1200 nM on PI3K [2] (PI3 Kinase γ); 0.185 nM against Human mTOR (FLAG-TOR).

As for `CCNC(=O)Nc1ccc(-c2nc(N3CC4CCC(C3)O4)c3cnn(C4CCNCC4)c3n2)cc1` [Example 28, 1-ethyl-3-{4-[4-(8-oxa-3-azabicyclo[3.2.1]oct-3-yl)-1-piperidin-4-yl-1H-pyrazolo[3,4-d]pyrimidin-6-yl]phenyl}urea], the IC50 amounted to 790 nM with prostate line LNCap; 1300 nM with breast line MDA468; 2160 nM at PI3K [1] (PI3 Kinase α); 9000 nM on PI3K [2] (PI3 Kinase γ); 1.8 nM against Human mTOR (FLAG-TOR).

Take `CCNC(=O)Nc1ccc(-c2nc(N3C4CCC3COC4)c3cnn(C4CCN(C(=O)OC)CC4)c3n2)cc1` [Example 357, methyl 4-[6-{4-[(ethylcarbamoyl)amino]phenyl}-4-(3-oxa-8-azabicyclo[3.2.1]oct-8-yl)-1H-pyrazolo[3,4-d]pyrimidin-1-yl]piperidine-1-carboxylate]: the IC50 with prostate line LNCap was determined as 9 nM; in the test with breast line MDA468, 70 nM; at PI3K [1] (setting [3]), 5550 nM; at PI3K [2] (setting [4]), 9160 nM; against Human mTOR (FLAG-TOR) (setting [5]) it was 0.625 nM.

Take `O=C(Nc1ccc(CCO)cc1)Nc1ccc(-c2nc(N3C[C@@H]4C[C@H]3CO4)c3cnn(CC(F)(F)F)c3n2)cc1` [Example 297, 1-[4-(2-hydroxyethyl)phenyl]-3-(4-{4-[(1S,4S)-2-oxa-5-azabicyclo[2.2.1]hept-5-yl]-1-(2,2,2-trifluoroethyl)-1H-pyrazolo[3,4-d]pyrimidin-6-yl}phenyl)urea]: the IC50 in the test with prostate line LNCap is less than 1 nM; with breast line MDA468, 4 nM; at PI3K [1] (setting [3]), 275 nM; at PI3K [2] (setting [4]) it was 3580 nM; against Human mTOR (FLAG-TOR) (setting [5]), 0.55 nM.

Regarding `CNC(=O)Nc1ccc(-c2nc(N3CC4CCC(C3)O4)c3cnn(C4CCN(C(=O)C(C)C)CC4)c3n2)cc1` [Example 82, 1-{4-[1-(1-isobutyrylpiperidin-4-yl)-4-(8-oxa-3-azabicyclo[3.2.1]oct-3-yl)-1H-pyrazolo[3,4-d]pyrimidin-6-yl]phenyl}-3-methylurea], the IC50 with prostate line LNCap was 60 nM; with breast line MDA468, 230 nM; at PI3K [1] (PI3 Kinase α), 1710 nM; at PI3K [2] (PI3 Kinase γ), greater than 10000 nM; at Human mTOR (FLAG-TOR), 0.58 nM.

For the molecule `COCC(COC)n1ncc2c(N3CC4CCC(C3)O4)nc(-c3ccc(NC(=O)OCCO)cc3)nc21` [Example 323, 2-hydroxyethyl (4-{1-[2-methoxy-1-(methoxymethyl)ethyl]-4-(8-oxa-3-azabicyclo[3.2.1]oct-3-yl)-1H-pyrazolo[3,4-d]pyrimidin-6-yl}phenyl)carbamate], the IC50 was 470 nM in the test with prostate line LNCap; 2000 nM in the test with breast line MDA468; 6620 nM at PI3K [1] (setting [3]); greater than 10000 nM at PI3K [2] (setting [4]); 16.5 nM against Human mTOR (FLAG-TOR) (setting [5]).
